Experimental data: US8497269B2, “Phthalazine compounds as p38 map kinase modulators and methods of use thereof” (Amgen Inc., priority 2008, dated 2013)

Legend:
human p38α = human p38α (Homo sapiens, UniProt Q16539); test: Purified and activated recombinant human p38α assay (HTRF); assay type: biochemical; details: 1 nM p38α, 50 μM ATP, 100 nM GST-ATF2-Avitag, 1 hour at RT, read-out: p38a IC50 IC50
Protocol: Purified and Activated Recombinant Human p38α Assay
Kinase Reaction Buffer: Kinase reaction buffer for p38α HTRF assays consists of 50 mM Tris-pH 7.5, 5 mM MgCl2, 0.1 mg/mL BSA, 100 μM Na3VO4 and 0.5 mM DTT.
HTRF Detection Buffer: HTRF detection buffer contains 100 mM HEPES-pH 7.5, 100 mM NaCl, 0.1% BSA, 0.05% Tween-20, and 10 mM EDTA.
Serial Dilution of Compounds: Compounds were dissolved in 100% DMSO and serially diluted (3 fold, 10 point) in a polypropylene 96-well microtiter plate (drug plate). The final starting concentration of compounds in the p38α enzymatic assays was 1 μM. Columns 6 and 12 (HI controls and LO controls respectively) in the drug plate were reserved as controls and contained only DMSO. Kinase Reaction: The p38α kinase reactions were carried out in a polypropylene 96-well black round bottom assay plate in total volume of 30 μL kinase reaction buffer. Appropriate concentration of purified and activated enzyme (recombinant human) was mixed with indicated concentration of ATP and 100 nM GST-ATF2-Avitag, in the presence or absence (HI control) of Compound. See table below for actual concentrations. In the absence of substrate, the background was measured as LO control. The reaction was allowed to incubate for 1 hour at RT. Assay Reagent Concentrations: The final reagent concentrations were 1 nM p38α and 50 μM ATP. […] After 60 minutes incubation at room temperature, the assay plate was read in a Discovery Plate Reader. The wells were excited with coherent 320 nm light and the ratio of delayed ([…] post excitation) emissions at […] (native europium fluorescence) and 665 nm (europium fluorescence transferred to allophycocyanin—an index of substrate phosphorylation) was determined (Park et al, 1999). Data Analysis: The proportion of substrate phosphorylated in the kinase reaction in the presence of compound compared with that phosphorylated in the presence of DMSO vehicle alone (HI control) was calculated using the formula: % control (POC)=(compound−average LO)/(average HI−average LO)*100. Data (consisting of POC and inhibitor concentration in μM) was fitted to a 4-parameter equation (y=A+((B−A)/(1+((x/C)^D))), where A is the minimum y (POC) value, B is the maximum y (POC), C is the x (compound concentration) at the point of inflection and D is the slope factor, using a Levenburg-Marquardt non-linear regression algorithm.
The inhibition constant (Ki) of the inhibitor was estimated from the IC50 (compound concentration at the point of inflection C) using the Cheng-Prussof equation: Ki=IC50/(1+S/Km), where S is the ATP substrate concentration, and Km is the Michaelis constant for ATP as determined experimentally. All results were expressed as the mean±the standard error of the mean. Data acquisition and non-linear regression algorithms were performed using Activity Base v5.2 and XL-fit software v4.1 respectively. All data was archived using Activity Base v5.2 software.

[1] = system: TNF-α induced IL-8 production in human whole blood; test: Inhibition of TNF-α induced IL-8 in 50% human whole blood; assay type: cell-based; details: 1 nM TNF-α, secreted IL-8, 16-18 hours, read-out: WB TNF/IL8 IC50
Protocol: Inhibition of TNF-α Induced IL-8 in 50% Human Whole Blood
Test compounds were evaluated in vitro for the ability to inhibit the production of secreted IL-8 by whole blood activated with TNF-α. Fresh human whole blood was obtained from healthy, non-medicated volunteers in sodium heparin tubes.
Compound Dilution—Assay Procedure
Test compounds are serially diluted 1:3 in DMSO and then diluted 1:250 into R10 (RPMI 1640, 10% human serum AB, 1× pen/strep/glutamine) to the 4× working concentration to be used in the assay. 100 ul heparinized whole blood is plated into wells of 96 well flat bottom plates. 50 ul of either 4× compound or DMSO control (Final DMSO concentration is 0.1%) are added to the appropriate wells. Plates are incubated for 1 hour at 37 degrees Celsius. 50 ul of 4×TNF-α (4 nM TNF-α, for a final concentration of 1 nM) or control (media alone) is added to the appropriate wells (Total volume=200 ul). Plates are incubated overnight (16-18 hours). 100 ul of supernatant is collected and stored in 96-well round bottom polypropylene plates at −80 degrees Celsius or assayed immediately for IL-8.
Cytokines are measured on antibody (Ab) sandwich ECL based 96-well detection plates. 20 ul of supernatant are added to plate and plate is sealed and shaken at RT for 1 hour. 130 ul of detection Ab cocktail is added and plates are sealed and shaken for 1 hour in the dark at RT. Plates are read on MSD Sector HTS instrument. Data are analyzed and IC50 values generated using Activity Base and Xl-fit programs.

Sequence of human p38α (Q16539 whole entry): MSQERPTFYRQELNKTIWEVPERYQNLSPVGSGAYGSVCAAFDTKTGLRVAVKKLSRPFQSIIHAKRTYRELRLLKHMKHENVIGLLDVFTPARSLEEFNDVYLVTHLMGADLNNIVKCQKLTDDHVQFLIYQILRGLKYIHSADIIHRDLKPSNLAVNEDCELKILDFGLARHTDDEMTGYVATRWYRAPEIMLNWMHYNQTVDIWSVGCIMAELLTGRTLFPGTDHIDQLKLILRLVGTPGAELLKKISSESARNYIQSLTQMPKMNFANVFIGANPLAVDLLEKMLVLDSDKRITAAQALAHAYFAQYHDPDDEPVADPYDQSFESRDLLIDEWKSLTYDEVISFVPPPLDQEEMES

Row | IC50 (human p38α) [nM] | IC50 [1] [nM] | Compound
1 | 0.3 | 1.8 | Cc1cc(F)ccc1Nc1ccc2c(-c3ccc(F)cc3C)nncc2c1 [Example 20, N,1-bis(4-fluoro-2-methylphenyl)-6-phthalazinamine]
2 | 1.5 | 11.4 | Cc1cccc(Nc2ccc3c(-c4ccc(F)cc4C)nncc3c2)n1 [Example 15, 1-(4-fluoro-2-methylphenyl)-N-(6-methyl-2-pyridinyl)-6-phthalazinamine]
3 | 0.4 | 1.5 | Cc1cc(F)ccc1-c1nncc2cc(Nc3ccc(F)cc3)ccc12 [Example 11, 1-(4-fluoro-2-methylphenyl)-N-(4-fluorophenyl)-6-phthalazinamine]
4 | 0.5 | 3.2 | Cc1cc(F)ccc1-c1nncc2cc(Nc3cccc(F)c3)ccc12 [Example 21, 1-(4-fluoro-2-methylphenyl)-N-(3-fluorophenyl)-6-phthalazinamine]
5 | 0.7 | 6.6 | Cc1cc(F)ccc1-c1nncc2cc(Nc3ncccc3C)ccc12 [Example 14, 1-(4-fluoro-2-methylphenyl)-N-(3-methyl-2-pyridinyl)-6-phthalazinamine]
6 | 0.3 | 2.2 | Cc1cccc(Nc2ccc3c(-c4ccc(F)cc4C)nncc3c2)c1 [Example 19, 1-(4-fluoro-2-methylphenyl)-N-(3-methylphenyl)-6-phthalazinamine]
7 | 0.3 | 1.8 | Cc1cc(F)ccc1-c1nncc2cc(Nc3cccc(F)c3C)ccc12 [Example 18, N-(3-fluoro-2-methylphenyl)-1-(4-fluoro-2-methylphenyl)-6-phthalazinamine]
8 | 0.5 | 3.5 | Cc1ccc(F)cc1Nc1ccc2c(-c3ccc(F)cc3C)nncc2c1 [Example 3, 1-(4-Fluoro-2-methylphenyl)-N-(5-fluoro-2-methylphenyl)phthalazin-6-amine]
9 | 1.6 | 16.1 | Cc1cc(F)ccc1-c1nncc2cc(Nc3ccccn3)ccc12 [Example 16, 1-(4-fluoro-2-methylphenyl)-N-2-pyridinyl-6-phthalazinamine]
10 | 0.7 | 2.7 | Cc1cc(F)ccc1-c1nncc2cc(Nc3ccccc3)ccc12 [Example 27, 1-(4-fluoro-2-methylphenyl)-N-phenyl-6-phthalazinamine]
11 | 0.8 | 20 | Cc1cc(S(C)(=O)=O)ccc1-c1nncc2cc(Nc3ccc(F)cn3)ccc12 [Example 33, N-(5-fluoro-2-pyridinyl)-1-(2-methyl-4-(methylsulfonyl)phenyl)-6-phthalazinamine]

The remaining lines, values behind:

Row | Compound | IC50 (human p38α) [nM] | IC50 [1] [nM]
12 | COc1ncccc1-c1nncc2cc(Nc3ccc(F)cc3)ccc12 [Example 28, N-(4-fluorophenyl)-1-(2-(methyloxy)-3-pyridinyl)-6-phthalazinamine] | 0.9 | 1.6
13 | Cc1ncccc1-c1nncc2cc(Nc3ccc(F)cc3)ccc12 [Example 29, N-(4-fluorophenyl)-1-(2-methyl-3-pyridinyl)-6-phthalazinamine] | 0.7 | 1.8
14 | Cc1cc(S(C)(=O)=O)c(Cl)cc1-c1nncc2cc(Nc3ccc(F)cc3F)ccc12 [Example 26, 1-(5-chloro-2-methyl-4-(methylsulfonyl)phenyl)-N-(2,4-difluorophenyl)-6-phthalazinamine] | 0.7 | 4.2
15 | C[C@@H](Oc1nncc2cc(Nc3ccc(F)cc3F)ccc12)C(F)(F)F [Example 6a, N-(2,4-difluorophenyl)-1-(((1R)-2,2,2-trifluoro-1-methylethyl)oxy)-6-phthalazinamine] | 1.5 | 24
16 | Cc1cc(F)ccc1-c1nncc2cc(Nc3ccc(F)cc3C(F)(F)F)ccc12 [Example 13, 1-(4-fluoro-2-methylphenyl)-N-(4-fluoro-2-(trifluoromethyl)phenyl)-6-phthalazinamine] | 0.5 | 9.9
17 | CC1CCCN1c1nncc2cc(Nc3ccc(F)cc3F)ccc12 (stereo not shown) [Example 1, N-(2,4-Difluorophenyl)-1-(2-methylpyrrolidin-1-yl)phthalazin-6-amine] | 1.5 | 4.1
18 | c1ccc(Nc2ccc3c(N4CCOCC4)nncc3c2)cc1 [Example 34, 1-(4-morpholinyl)-N-phenyl-6-phthalazinamine] | 8 | 16
19 | Cc1noc(C)c1-c1nncc2cc(Nc3ccc(F)cc3)ccc12 [Example 30, 1-(3,5-dimethyl-4-isoxazolyl)-N-(4-fluorophenyl)-6-phthalazinamine] | 0.9 | 4.9
20 | CC1CCCN1c1nncc2cc(Nc3ccccc3)ccc12 (stereo not shown) [Example 17, 1-(2-methyl-1-pyrrolidinyl)-N-phenyl-6-phthalazinamine] | 5 | 6.7
21 | CC(Oc1nncc2cc(Nc3ccc(F)cc3F)ccc12)C(F)(F)F (racemic) [Example 6, N-(2,4-Difluorophenyl)-1-(1,1,1-trifluoropropan-2-yloxy)phthalazin-6-amine] | 3.1 | 37
22 | C[C@H](Oc1nncc2cc(Nc3ccc(F)cc3F)ccc12)C(F)(F)F [Example 6b, N-(2,4-difluorophenyl)-1-(((1S)-2,2,2-trifluoro-1-methylethyl)oxy)-6-phthalazinamine] | 4.6 | 89
23 | Cc1cc(S(C)(=O)=O)c(Cl)cc1-c1nncc2cc(Nc3ccc(F)cc3)ccc12 [Example 25, 1-(5-chloro-2-methyl-4-(methylsulfonyl)phenyl)-N-(4-fluorophenyl)-6-phthalazinamine] | 0.7 | 4.5
24 | Cn1nccc1-c1nncc2cc(Nc3ccc(F)cc3)ccc12 [Example 32, N-(4-fluorophenyl)-1-(1-methyl-1H-pyrazol-5-yl)-6-phthalazinamine] | 1 | 4.9
25 | Cc1cc(F)ccc1-c1nncc2cc(Sc3cccc(F)c3)ccc12 [Example 4, 1-(4-Fluoro-2-methylphenyl)-6-(3-fluorophenylthio)phthalazine] | 1 | 66.9
26 | CC(C)c1nncc2cc(Nc3ccc(F)cc3F)ccc12 [Example 7, N-(2,4-Difluorophenyl)-1-isopropylphthalazin-6-amine] | 0.4 | 2.4
27 | N-(4-fluorophenyl)-1-((2,2,2-trifluoro-1-methylethyl)oxy)-6-phthalazinamine [Example 23] | 9.1 | 137
28 | Cc1cc(S(C)(=O)=O)c(F)cc1-c1nncc2cc(Nc3ccc(F)cc3F)ccc12 [Example 12, N-(2,4-difluorophenyl)-1-(5-fluoro-2-methyl-4-(methylsulfonyl)phenyl)-6-phthalazinamine] | 0.5 | 0.8
29 | Cc1cc(S(C)(=O)=O)ccc1-c1nncc2cc(Nc3ccc(F)cc3)ccc12 [Example 2, N-(4-Fluorophenyl)-1-(2-methyl-4-(methylsulfonyl)phenyl)phthalazin-6-amine] | 0.3 | 0.8
